Values of other authors as cited in patent US20090318377A1, “MEDICAGENIC ACID SAPONIN AND USES THEREOF” (MEDICAGO INC., priority 2006, published 2009).

Tested on: Syrian Golden hamster
Details: average daily dose 128 mg/kg for 4 weeks

For soyasaponin B, the “reduction in high-density lipoprotein (HDL)” value is given as 33%, the “reduction in plasma cholesterol” value is given as 20% and the reduction in triglycerides is given as 18%.
